Experimental data reported in article PMC12716008 (Chemistry & Biodiversity, 2025).
≈ marks a conversion by molar mass, not a printed value. Where two headings read alike, the source gives them in different places. Starred links: 1 amine or outer side, 2 acyl side, 3 side chain; linkers in the order of their positions; H or OH if unused. Positions of bridges follow the written chain, without caps; N, C: chain ends. Non-standard residues stand in square brackets, D forms with d. Residues, ends and D or L forms follow the SMILES beside them. Chains are numbered I, II in the order given. Actinocin(9to1) = Cc1c2oc3c(C)ccc(C(=O)[*:1])c3nc-2c(C(=O)[*:2])c(N)c1=O; NMeV = CN[C@H](C(=O)O)C(C)C; Sar = CNCC(=O)O

Legend:
[1] = test system: Mycobacterium tuberculosis H37Rv (ATCC 27264); test: Antimycobacterial activity, microtitre Alamar Blue/Presto Blue assay (MIC); format: cell-based; settings: 120 h, read-out: M. tb MIC
[2] = test system: Mycobacterium smegmatis (MC^2 155); test: as above; format: cell-based; settings: Mycolicibacterium smegmatis, read-out: M. smeg MIC
[3] = test system: M. smegmatis biofilm formation; test: Mycobacterial biofilm inhibition, microtitre antibiofilm assay (MBIC); format: cell-based, Mycobacterium smegmatis; settings: 2–4 days, 37°C, read-out: M. smeg MBIC
[4] = test system: methicillin‐sensitive S. aureus (MSSA) UAMS‐1; test: Antistaphylococcal activity, broth microdilution (MIC); format: cell-based; settings: Staphylococcus aureus, read-out: MSSA MIC
[5] = test system: methicillin‐resistant S. aureus (MRSA) AH1263 or LAC; test: as above; format: cell-based, Staphylococcus aureus; settings: 18 h, read-out: MRSA MIC
[6] = test system: MSSA UAMS‐1 biofilm formation; test: Staphylococcal biofilm inhibition, crystal violet microtitre test (MBIC); format: cell-based; settings: Staphylococcus aureus, 22 h, read-out: MSSA MBIC
[7] = test system: MRSA AH1263 or LAC biofilm formation; test: as above; format: cell-based; settings: Staphylococcus aureus, 22 h, read-out: MRSA MBIC
[8] = test system: African green monkey kidney (Vero) cell line; test: Cytotoxicity, Presto Blue cell viability; format: cell-based; settings: 72 h, read-out: Vero IC50 ± SD
Method: (§1) The human monocyte (U937) and African green monkey kidney (Vero) cell lines were used in this study to determine the cytotoxic potential of the quinoline derivatives. The cell lines were purchased from Separation Scientific SA (Pty) Ltd. (Johannesburg, South Africa) and maintained in Roswell Park Memorial Institute (RPMI) 1640 and Eagle's Minimal Essential Medium (EMEM), supplemented with 10% heat‐inactivated foetal bovine serum (FBS), 1% antibiotics (100 U/mL penicillin and 100 µg/mL streptomycin) and 1% antifungal agent (250 µg/mL amphotericin B) as previously described. The cells were cultured at 37°C, 5% CO2 in a humidified incubator to 80% confluency. Detachment was achieved by rinsing the cells with phosphate buffer saline followed by the addition of trypsin–EDTA (0.25% trypsin containing 0.01% EDTA). After 5 min, the reaction was inhibited through the addition of supplemented media.
(§2) Cell viability was assessed through the method described by Lall et al., using Presto Blue as the viability reagent. The cells were seeded in a flat‐bottom 96‐well plate (100 µL) at a concentration of 1.0 × 10^6 cells/mL and allowed to adhere for 24 h. The samples were prepared in DMSO at a stock concentration of 20 mM, serially diluted in complete media and added to the plate at a final concentration range of 0.78–100 µM. Controls included a vehicle control (2% DMSO), an untreated cell control, a 0% control (no cells) and actinomycin D, as the positive control, at a final test concentration range of 3.9 × 10^−4 to 0.05 µg/mL. Cells were incubated for 72 h, followed by the addition of 20 µL of Presto Blue reagent to all the wells and an additional 2 h incubation. Cell viability was measured using a VICTOR Nivo Multimode Microplate Reader (PerkinElmer) at an excitation/emission wavelength of 540/590 nm.
(§3) All results are presented as the mean ± standard deviation (where applicable) of experiments done in triplicate and in two or three independent experiments (as stated in each methods section). Descriptive analysis was used to directly compare and rank the compounds and derivatives based on their activity in the biological assays. Additionally, by comparing the antibiofilm activity to the antibacterial activity and the antibacterial activity to the cytotoxicity, selectivity indices were used to assess the preferential activity of the compounds.

hepatoma (Hep3B) = settings: cited from earlier work
[9] = test system: human monocyte (U937) cell line; test: Cytotoxicity, Presto Blue cell viability; format: cell-based; settings: U-937, 72 h
Method: as §1, §2, §3

[10] = M. tuberculosis H37Rv, 5 days, 37°C
[11] = MC^2155, M. smegmatis, 24 h, 37°C
[12] = Staphylococcus aureus, MRSA, S. aureus AH1263/LAC
[13] = Chlorocebus sabaeus, Vero, Vero cells
[14] = U937 cells, 72 h, read-out: U937 IC50 ± SD

| SMILES | MIC [1, 10] | MIC [2, 11] | minimal effective concentration ([3]; Mycolicibacterium smegmatis) | MIC ([4]; S. aureus UAMS‐1, 18 h) | MIC [5, 12] | minimal effective concentration ([7]; S. aureus AH1263/LAC biofilm) | IC50 [8, 13] | IC50 [9, 14] | also measured |
| --- | --- | --- | --- | --- | --- | --- | --- | --- | --- |
| O=Cc1ccc2cccc(O)c2n1 [HQ‐4, 8‐hydroxyquinoline‐2‐carbaldehyde, reference compound] | – | – | – | – | – | – | – | – | MIC [1]: 1 µM (≈ 0.173 µg/mL); MIC ([2]; MC^2155, 24 h): > 100 µM; minimal effective concentration [3]: >100 µM; MIC ([4]; 18 h): 370 µM (≈ 64.1 µg/mL); MIC ([5]; Staphylococcus aureus, MRSA): 370 µM (≈ 64.1 µg/mL); minimal effective concentration [6]: 740 µM; minimal effective concentration [7]: 740 µM; IC50 ([8]; Chlorocebus sabaeus, Vero): > 100 µM; MTS50 (hepatoma (Hep3B)): 6.25 ± 0.034 µg/mL |
| Cc1ccc2c(Cl)cc(Cl)c(O)c2n1 [HQ‐2, 5,7‐dichloro‐8‐hydroxy‐2‐methylquinoline, reference compound] | 0.1 µM (≈ 0.0228 µg/mL) | 1.56 µM (≈ 0.356 µg/mL) | 3.13 µM | 2.2 µM (≈ 0.502 µg/mL) | 1.1 µM (≈ 0.251 µg/mL) | 35.2 µM | < 100 µM | – | minimal effective concentration ([6]; S. aureus UAMS‐1 biofilm): 17.6 µM; IC50 ([8]; Vero cells): 82.8 ± 7.09 µM |
| CCCCCOc1c(Cl)cc(Cl)c2ccc(C)nc12 [QD‐4] | > 100 µM | > 100 µM | > 100 µM | – | – | – | > 100 µM | > 100 µM | – |
| CC(C)=CCOc1cccc2ccc(C)nc12 [QD‐9] | 100 µM (≈ 22.7 µg/mL) | > 100 µM | > 100 µM | – | – | – | > 100 µM | > 100 µM | – |
| Cc1c2oc3c(C)ccc(C(=O)N[C@@H]4C(=O)N[C@H](C(C)C)C(=O)N5CCC[C@H]5C(=O)N(C)CC(=O)N(C)[C@@H](C(C)C)C(=O)O[C@@H]4C)c3nc-2c(C(=O)N[C@@H]2C(=O)N[C@H](C(C)C)C(=O)N3CCC[C@H]3C(=O)N(C)CC(=O)N(C)[C@@H](C(C)C)C(=O)O[C@@H]2C)c(N)c1=O [Actinomycin D, reference compound] (I: T[dV]P[Sar][NMeV] / II: T[dV]P[Sar][NMeV]; ester I:1-I:C, II:1-II:C; linker I:N-II:N via Actinocin(9to1)) | – | – | – | – | – | – | – | – | IC50 ([8]; Chlorocebus sabaeus, Vero): 0.02 µM; IC50 ([9]; read-out: U937 IC50 ± SD): 0.002 µM |
| CC(C)CCOC(=O)c1ccc2cccc(OCCC(C)C)c2n1 [QD‐11, isopentyl 8‐(isopentyloxy)quinoline‐2‐carboxylate] | 100 µM (≈ 32.9 µg/mL) | > 100 µM | > 100 µM | 389 µM (≈ 128 µg/mL) | 389 µM (≈ 128 µg/mL) | – | 70.4 ± 3.99 µM | > 100 µM | – |
| CC(C)=CCOc1cccc2ccc(C=O)nc12 [QD‐12] | 100 µM (≈ 24.1 µg/mL) | 100 µM (≈ 24.1 µg/mL) | 12.5 µM | 266 µM (≈ 64.1 µg/mL) | 133 µM (≈ 32 µg/mL) | 266 µM | > 100 µM | > 100 µM | minimal effective concentration ([6]; S. aureus UAMS‐1 biofilm): 531 µM |
| NNC(=O)c1ccncc1 [Isoniazid, reference compound] | 0.3 µM (≈ 0.0411 µg/mL) | – | – | – | – | – | – | – | – |
| CC(C)=CCOc1c(Cl)cc(Cl)c2ccc(C)nc12 [QD‐6] | 100 µM (≈ 29.6 µg/mL) | > 100 µM | > 100 µM | – | – | 256 µM | > 100 µM | > 100 µM | – |
| Cc1ccc2cccc(OCCC(C)C)c2n1 [QD‐8] | 100 µM (≈ 22.9 µg/mL) | > 100 µM | 100 µM | 559 µM (≈ 128 µg/mL) | – | – | > 100 µM | > 100 µM | – |
| Cc1onc(-c2ccccc2)c1C(=O)N[C@@H]1C(=O)N2[C@@H]1SC(C)(C)[C@@H]2C(=O)O [Oxacillin, reference compound] | – | – | – | 1 µM (≈ 0.401 µg/mL) | 64 µM (≈ 25.7 µg/mL) | – | – | – | – |
| CCCCCOC(=O)c1ccc2cccc(OCCCCC)c2n1 [QD‐10, pentyl 8‐(pentyloxy)quinoline‐2‐carboxylate] | 100 µM (≈ 32.9 µg/mL) | > 100 µM | > 100 µM | 389 µM (≈ 128 µg/mL) | 389 µM (≈ 128 µg/mL) | – | 84.8 ± 3.42 µM | 69.48 ± 0.16 µM | – |
| CCCCCOc1cccc2cccnc12 [QD‐1] | 100 µM (≈ 21.5 µg/mL) | > 100 µM | > 100 µM | 595 µM (≈ 128 µg/mL) | 595 µM (≈ 128 µg/mL) | 595 µM | > 100 µM | > 100 µM | minimal effective concentration ([6]; S. aureus UAMS‐1 biofilm): 595 µM |
| CC(C)CCOc1cccc2cccnc12 [QD‐2] | > 100 µM | > 100 µM | > 100 µM | – | 1190 µM (≈ 256 µg/mL) | 1190 µM | > 100 µM | > 100 µM | minimal effective concentration ([6]; S. aureus UAMS‐1 biofilm): 1190 µM |
| Oc1cccc2cccnc12 [HQ‐1, 8‐hydroxyquinoline, reference compound] | – | – | – | – | – | – | – | – | MIC [1]: 1 µM (≈ 0.145 µg/mL); MIC ([2]; MC^2155, 24 h): 3.13 µM (≈ 0.454 µg/mL); MIC ([4]; 18 h): 13.8 µM (≈ 2 µg/mL); MIC ([5]; S. aureus AH1263/LAC): 6.90 µM (≈ 1 µg/mL); MIC ([5]; Staphylococcus aureus, MRSA): 6.9 µM (≈ 1 µg/mL); minimal effective concentration [6]: 13.8 µM; minimal effective concentration [7]: 6.9 µM |
| CC(C)=CCOc1cccc2cccnc12 [QD‐3] | 100 µM (≈ 21.3 µg/mL) | > 100 µM | 100 µM | 300 µM (≈ 64.1 µg/mL) | 300 µM (≈ 64.1 µg/mL) | 601 µM | > 100 µM | 83.83 ± 0.8 µM | minimal effective concentration ([6]; S. aureus UAMS‐1 biofilm): 601 µM |
| Cc1ccc2c(Cl)cc(Cl)c(OCCC(C)C)c2n1 [QD‐5] | > 100 µM | > 100 µM | > 100 µM | – | – | – | > 100 µM | > 100 µM | – |
| O=C(O)c1cn(C2CC2)c2cc(N3CCNCC3)c(F)cc2c1=O [Ciprofloxacin, reference compound] | – | 0.6 µM (≈ 0.199 µg/mL) | 0.325 µM | – | – | 1 µM | – | – | minimal effective concentration ([6]; S. aureus UAMS‐1 biofilm): 2 µM |
| Cc1ccc2cccc(O)c2n1 [HQ‐3, 2‐methyl‐8‐hydroxyquinoline, reference compound] | – | – | – | – | – | – | – | – | MIC [1]: 1 µM (≈ 0.159 µg/mL); MIC ([2]; MC^2155, 24 h): 6.25 µM (≈ 0.995 µg/mL); MIC ([4]; 18 h): 201 µM (≈ 32 µg/mL); MIC ([5]; Staphylococcus aureus, MRSA): 101 µM (≈ 16 µg/mL); minimal effective concentration [6]: 101 µM; minimal effective concentration [7]: 201 µM; IC50 ([8]; Chlorocebus sabaeus, Vero): > 100 µM; IC50 ([9]; read-out: U937 IC50 ± SD, U937 cells, 72 h): > 100 µM |
| CCCCCOc1cccc2ccc(C)nc12 [QD‐7] | 100 µM (≈ 22.9 µg/mL) | > 100 µM | > 100 µM | 1120 µM (≈ 256 µg/mL) | 1120 µM (≈ 256 µg/mL) | – | > 100 µM | > 100 µM | – |
| CN[C@H](CC(C)C)C(=O)N[C@H]1C(=O)N[C@@H](CC(N)=O)C(=O)N[C@H]2C(=O)N[C@H]3C(=O)N[C@H](C(=O)N[C@H](C(=O)O)c4cc(O)cc(O)c4-c4cc3ccc4O)[C@H](O)c3ccc(c(Cl)c3)Oc3cc2cc(c3O[C@@H]2O[C@H](CO)[C@@H](O)[C@H](O)[C@H]2O[C@H]2C[C@](C)(N)[C@H](O)[C@H](C)O2)Oc2ccc(cc2Cl)[C@H]1O [Vancomycin, reference compound] | – | – | – | – | – | – | – | – | MIC ([4]; 18 h): 1 µM (≈ 1.45 µg/mL); MIC ([5]; Staphylococcus aureus, MRSA): 1 µM (≈ 1.45 µg/mL) |
